Experiments:
Assay in all cases: combination Emax (second highest fraction inhibited in the dose matrix, 72 h); higher = more inhibition; extreme values may be limits of the assay
[1] = system: MOG-G-UVW (Low Grade Glioma)
Outline: (§1)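 Bliss excess equals the observed combination effect minus the expected value EA + EB − EA·EB, where EA and EB are the effects of each agent alone. Combination Emax is the second-highest inhibition within the matrix. Inhibition was scaled from CellTiter-Glo 2.0 luminescence, with 0 set by vehicle wells and 1 by blank wells, after 72 hours of two-drug dosing of cells plated in 1536-well plates.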

[2] = system: DU-145 (Prostate Carcinoma)
Outline: as §1

[3] = system: SW982 (Other Solid Carcinomas)
Outline: as §1

[4] = system: LC-1-sq (Squamous Cell Lung Carcinoma)
Outline: as §1

SK-N-AS (Neuroblastoma) = system: SK-N-AS (Neuroblastoma)
Outline: as §1

[5] = system: KMRC-1 (Kidney Carcinoma)
Outline: as §1

[6] = system: MOLT-4 (T-Lymphoblastic Leukemia)
Outline: as §1

Hey (Ovarian Carcinoma) = system: Hey (Ovarian Carcinoma)
Outline: as §1

[7] = system: NCI-H522 (Lung Adenocarcinoma)
Outline: as §1

[8] = system: SKN (Other Solid Carcinomas)
Outline: as §1

[9] = system: Mo-T (Other Blood Carcinomas)
Outline: as §1

[10] = system: ME-180 (Cervical Carcinoma)
Outline: as §1

[11] = system: CADO-ES1 (Ewing's Sarcoma)
Outline: as §1

COLO-679 (Melanoma) = system: COLO-679 (Melanoma)
Outline: as §1

[12] = system: ML-2 (Acute Myeloid Leukemia)
Outline: as §1

[13] = system: MV-4-11 (Acute Myeloid Leukemia)
Outline: as §1

[14] = system: NCI-H1838 (Lung Adenocarcinoma)
Outline: as §1

[15] = system: KGN (Other Solid Carcinomas)
Outline: as §1

[16] = system: HCC2998 (Colorectal Carcinoma)
Outline: as §1

[17] = system: EFO-21 (Ovarian Carcinoma)
Outline: as §1

Row | Structure (SMILES) | combination Emax [1] | combination Emax [2] | combination Emax [3] | combination Emax [4] | combination Emax (SK-N-AS (Neuroblastoma)) | combination Emax [5] | combination Emax [6] | combination Emax (Hey (Ovarian Carcinoma)) | combination Emax [7] | combination Emax [8] | combination Emax [9] | combination Emax [10] | combination Emax [11] | combination Emax (COLO-679 (Melanoma)) | combination Emax [12] | combination Emax [13] | combination Emax [14] | combination Emax [15] | combination Emax [16] | combination Emax [17]
1 | CN(C)CCCOc1ccc(-c2ccc3ncc4c(c3c2)n(C2CCOCC2)c(=O)n4C)cn1 [AZD0156] + C=CCn1c(=O)c2cnc(Nc3ccc(N4CCN(C)CC4)cc3)nc2n1-c1cccc(C(C)(C)O)n1 [AZD1775] (first compound max 1 µM, partner max 1 µM) | 0.744 | 0.239 | 0.71 | 0.91 | 0.77 | 0.259 | 1 | 0.495 | 0.225 | 0.336 | 0.402 | 0.423 | 0.39 | 0.552 | 1 | 0.924 | 0.465 | 0.806 | 0.633 | 0.472
2 | CN(C)CCCOc1ccc(-c2ccc3ncc4c(c3c2)n(C2CCOCC2)c(=O)n4C)cn1 [AZD0156] + CCN(CCO)CCCOc1ccc2c(Nc3cc(CC(=O)Nc4cccc(F)c4)[nH]n3)ncnc2c1 [AZD2811] (first compound max 1 µM, 7x7, partner max 1 µM) | 0.615 | 0.134 | 0.548 | 0.257 | 0.183 | 0.13 | 0.968 | 0.229 | 0.0622 | 0.042 | 0.137 | 0.192 | 0.323 | 0.159 | 0.878 | 0.93 | 0.263 | 0.551 | 0.183 | 0.116
3 | CN(C)CCCOc1ccc(-c2ccc3ncc4c(c3c2)n(C2CCOCC2)c(=O)n4C)cn1 [AZD0156] + O=C(c1cc(Cc2n[nH]c(=O)c3ccccc23)ccc1F)N1CCN(C(=O)C2CC2)CC1 [Olaparib] (first compound max 3 µM, partner max 3 µM) | 0.632 | 0.0116 | 0.4 | 0.184 | 0.169 | 0.151 | 0.636 | 0.408 | 0.258 | 0.188 | 0.402 | 0.348 | 0.739 | 0.225 | 0.478 | – | 0.21 | 0.62 | 0.257 | 0.252
4 | C=CCn1c(=O)c2cnc(Nc3ccc(N4CCN(C)CC4)cc3)nc2n1-c1cccc(C(C)(C)O)n1 [AZD1775] + C1CN(CCC1(C(=O)N[C@@H](CCO)C2=CC=C(C=C2)Cl)N)C3=NC=NC4=C3C=CN4 [Capivasertib] (first compound max 3 µM, partner max 3 µM) | 0.891 | 0.449 | 0.674 | 0.761 | 0.766 | 0.593 | 0.989 | 0.726 | 0.612 | 0.576 | 0.894 | 0.898 | 0.621 | 0.412 | 0.994 | – | 0.501 | 0.734 | 0.831 | 0.515
5 | C=CCn1c(=O)c2cnc(Nc3ccc(N4CCN(C)CC4)cc3)nc2n1-c1cccc(C(C)(C)O)n1 [AZD1775] + C[C@@H]1COCCN1C2=NC(=NC(=C2)C3(CC3)[S@](=N)(=O)C)C4=C5C=CNC5=NC=C4 [AZD6738] (first compound max 1 µM, partner max 10 µM) | 0.922 | 0.604 | 0.807 | 0.938 | – | 0.669 | 1 | 0.809 | 0.487 | 0.506 | 0.61 | 0.802 | 0.901 | 0.723 | 1 | 0.991 | 0.733 | 0.922 | 0.938 | 0.543
6 | CN(CCO)CC[C@H](CSc1ccccc1)Nc1ccc(S(=O)(=O)NC(=O)c2ccc(N3CCC([C@@H](O)c4ccccc4-c4ccc(Cl)cc4)CC3)cc2)cc1S(=O)(=O)C(F)(F)F [AZD4320] + C=CCn1c(=O)c2cnc(Nc3ccc(N4CCN(C)CC4)cc3)nc2n1-c1cccc(C(C)(C)O)n1 [AZD1775] (first compound max 1 µM, partner max 1 µM) | – | 0.213 | 0.953 | 0.869 | 0.976 | 0.278 | 1 | 0.673 | 0.237 | 0.586 | 0.984 | 0.581 | 0.566 | 0.521 | 1 | 1 | 0.541 | 0.784 | 0.899 | 0.53
7 | CS(=O)(=O)CCNCc1ccc(-c2ccc3ncnc(Nc4ccc(OCc5cccc(F)c5)c(Cl)c4)c3c2)o1 [Lapatinib] + NC1(c2ccc(-c3nc4ccn5c(=O)[nH]nc5c4cc3-c3ccccc3)cc2)CCC1 [MK-2206] (first compound max 10 µM, 7x7, partner max 10 µM) | 0.648 | 0.297 | 0.894 | – | 0.16 | 0.792 | 0.938 | – | 0.322 | 0.658 | 0.948 | 0.758 | – | 0.618 | 0.785 | 0.961 | 0.348 | 0.85 | – | 0.321
8 | O=C(c1cc(Cc2n[nH]c(=O)c3ccccc23)ccc1F)N1CCN(C(=O)C2CC2)CC1 [Olaparib] + CN(CC[C@H](CSC1=CC=CC=C1)NC2=C(C=C(C=C2)S(=O)(=O)NC(=O)C3=CC=C(C=C3)N4CCC(CC4)[C@H](C5=CC=CC=C5C6=CC=C(C=C6)Cl)O)S(=O)(=O)C(F)(F)F)CCO [AZD4320] (first compound max 10 µM, 7x7, partner max 1 µM) | 0.344 | 0.0992 | 0.709 | – | 0.112 | 0.219 | 0.977 | – | 0.0607 | 0.174 | 0.844 | 0.18 | – | 0.0175 | 0.979 | 1 | – | 0.298 | – | 0.172
9 | O=C(c1cc(Cc2n[nH]c(=O)c3ccccc23)ccc1F)N1CCN(C(=O)C2CC2)CC1 [Olaparib] + COc1nnc2ccc(N3CCC(c4ccc(OCCN5CCN(C)C(=O)[C@H]5C)cc4)CC3)nn12 [AZD5153] (first compound max 10 µM, 7x7, partner max 1 µM) | 0.641 | 0.219 | 0.787 | – | 0.326 | 0.277 | 0.591 | – | 0.309 | 0.553 | 0.59 | 0.424 | – | 0.321 | 0.917 | 1 | – | 0.712 | – | 0.353
10 | O=C(c1cc(Cc2n[nH]c(=O)c3ccccc23)ccc1F)N1CCN(C(=O)C2CC2)CC1 [Olaparib] + Cc1c2c(nn1C)CSCc1cc(n(C)n1)CSc1cc(c3ccccc3c1)OCCCc1c(C(=O)O)n(C)c3c-2c(Cl)ccc13 [AZD5991] (first compound max 10 µM, 7x7, partner max 1 µM) | 0.408 | 0.121 | 0.491 | – | 0.258 | 0.0973 | 0.878 | – | 0.479 | 0.126 | 0.0919 | 0.1 | – | 0.119 | 1 | 1 | – | 0.162 | – | 0.117
11 | CCc1c2c(nc3ccc(O)cc13)-c1cc3c(c(=O)n1C2)COC(=O)[C@]3(O)CC [SN-38] + O=C(c1cc(Cc2n[nH]c(=O)c3ccccc23)ccc1F)N1CCN(C(=O)C2CC2)CC1 [Olaparib] (first compound max 0.3 µM, 7x7, partner max 10 µM) | 0.825 | 0.813 | 0.789 | 0.455 | 0.76 | 0.318 | 1 | 0.72 | 0.389 | 0.596 | 0.724 | 0.914 | 0.987 | 0.743 | 1 | 1 | – | 0.918 | – | 0.586
12 | Cc1nc(-c2cn3c(n2)-c2ccc(-c4cnn(C(C)(C)C(N)=O)c4)cc2OCC3)n(C(C)C)n1 [Taselisib] + O=C(Nc1ccc2[nH]nc(-c3ccncc3)c2c1)[C@@H]1CCN(CC(=O)N2CCN(c3ccc(-c4ncccn4)cc3)CC2)C1 [SCH772984] (first compound max 10 µM, 7x7, partner max 5 µM) | 0.884 | 0.342 | 0.908 | – | 0.494 | 0.543 | 0.837 | – | 0.339 | 0.735 | 0.477 | 0.732 | – | 0.851 | 1 | 0.905 | – | 0.816 | – | 0.409
13 | CC1(C)CCC(CN2CCN(c3ccc(C(=O)NS(=O)(=O)c4ccc(NCC5CCOCC5)c([N+](=O)[O-])c4)c(Oc4cnc5[nH]ccc5c4)c3)CC2)=C(c2ccc(Cl)cc2)C1 [Venetoclax] + CS(=O)(=O)CCNCc1ccc(-c2ccc3ncnc(Nc4ccc(OCc5cccc(F)c5)c(Cl)c4)c3c2)o1 [Lapatinib] (first compound max 1 µM, 7x7, partner max 10 µM) | 0.213 | 0.127 | 0.437 | – | 0.118 | 0.595 | 0.502 | – | 0.153 | 0.196 | 0.33 | 0.427 | – | 0.0296 | 0.977 | 1 | – | 0.4 | – | 0.153

Source: the supplement of paper PMC11061612
